From article PMC10989073, “Antineoplastic effect of compounds C14 and P8 on TNBC and radioresistant TNBC cells by stabilizing the K-Ras4B^G13D/PDE6δ complex” (Frontiers in Oncology, 2024)
Like-named read-outs stand apart in the source and are kept apart here.

Legend:
[1] = system: cyclin D1 and GSK3β in MDA-MB-231 cells; experiment: Western blotting of cyclin D1 and GSK3β; format: cell-based, human; conditions: MDA-MB-231, 3 h; for reduction in cyclin D1 expression: C14 and P8 at IC50-24 (Figure 7 legend), cisplatin 100 µM, doxorubicin 0.5 µM; for reduction in GSK3β expression: IC50-24 (Figure 7 legend), densitometry
Method: (§1) To determine the effect of the C14 and P8 compounds over the protein effectors of K-Ras4B, AKT, and ERK, immunoblotting assays were conducted with specific antibodies. In brief, MCF-10A, MDA-MB-231, and MDA-MB-231RR cells were plated in 100-mm culture dishes until 80% of confluents. Cell adhesion was allowed for 24 h. […] After pre-treatment, cells were stimulated with 100 ng/ml EGF for 10 minutes to promote AKT and ERK activation. Later, the whole-cell extracts were obtained by the lysis of the cells (Cytoskeleton) in the presence of proteases and phosphatase inhibitors. Subsequently, the protein extracts were incubated at 4°C for 40 minutes to be clarified by centrifugation for 10 minutes at 14,000 rpm, at 4°C. The protein concentration of each extract was determined by using the Precision Red Advanced Protein Assay Reagent (Cytoskeleton) Then, approximately 25 μg of protein extract was electrophoresed in 10% sodium dodecyl sulfate–polyacrylamide gel electrophoresis (SDS-PAGE) and transferred to polyvinylidene fluoride (PVDF) membranes (Millipore, Billerica, MA, USA). Blots were probed using the following primary antibodies: Total ERK (Cell Signaling, Danvers, MA, USA), pERK (Cell Signaling), Total AKT (Cell Signaling), pAKT (Cell Signaling), GSK3β (Cell Signaling), and cyclin D1 (Abcam) at a 1:1,000 dilution. As a control, an anti-GAPDH antibody (GeneTex, Irvine, CA, USA) was employed at a 1:100,000 dilution and γ-Tubulin (Invitrogen) 1:5,000. Densitometric analysis of blots was performed using the software ImageJ version 1.45 (National Institutes of Health, Bethesda, […], USA).

[2] = system: cyclin D1 and GSK3β in MDA-MB-231RR cells; experiment: Western blotting of cyclin D1 and GSK3β; format: cell-based, human; conditions: 3 h; for reduction in cyclin D1: C14 and P8 at IC50-24 (Figure 7 legend), cisplatin 100 µM, doxorubicin 0.5 µM; for reduction in GSK3β expression: IC50-24 (Figure 7 legend), densitometry
Method: as §1

MCF-7 cells = experiment: XTT cell viability assay and IC50 determination; format: cell-based, human; conditions: ± SD
Method: (§2) In order to evaluate the effect of the C14 and P8 compounds over MCF-10A, MCF-7, MDA-MB-231, and […] cell lines, the IC50 of those molecules was determined. In brief, all the cell lines were seeded at a density of 15,000 cells per well in a 96-well microtiter plate (Corning) in a corresponding growth medium for 24 h. Then, cells were treated with increasing concentrations (from 0 to 200 μM) of the C14 and P8 compounds (Enamine, Kyiv, Ukraine). As a positive control, increased concentrations of cisplatin (from 0 to 200 µM) (Accord, Mexico City, Mexico) were employed. Due to that, dimethyl sulfoxide (DMSO) was used as a vehicle, and its increased concentrations were evaluated as the negative control. All the samples were maintained under growth conditions for 24 h and 48 h. At the end of each time, cell viability was determined using the XTT Cell Proliferation Kit II (Roche Applied Science, Mannheim, Germany) following the manufacturer’s protocol. The absorbance was measured in a spectrophotometer Synergy-HTX (BioTek) at a wavelength of 450–500 nm with a reference wavelength of 650 nm. Cell proliferation was expressed as a percentage of viability [(absorbance of treated cells/absorbance of untreated cells × 100)] ± SD.

MDA-MB-231RR cells [3] = experiment: XTT cell viability assay and IC50 determination; format: cell-based, human; conditions: for IC50: XTT, ± SD
Method: as §2

MCF-10A cells = experiment: XTT cell viability assay and IC50 determination; format: cell-based, human; conditions: for IC50: XTT, ± SD; for concentration required to observe any effect on cell viability: MCF-10A control cells, statistical analysis
Method: as §2

MDA-MB-231RR cells [4] = experiment: Cell cycle analysis (propidium iodide, flow cytometry); format: cell-based, human; conditions: 3 h at IC50-48H, control 35.6%
Method: (§3) After 3-h incubation, cells were harvested, washed twice in ice-cold PBS, and fixed overnight in 70% ethanol at 4°C. Then, cells were washed in PBS, collected by centrifugation, and stained with staining buffer (PBS with 50 µg/ml propidium iodide and 100 µg/ml RNase A).

MDA-MB-231 cells = experiment: as above; format: cell-based, human; conditions: MDA-MB-231, 3 h at IC50-48H; control 10.0%
Method: as §3

[5] = system: AKT and ERK phosphorylation in MCF-10A cells; experiment: Western blotting of pAKT and pERK; format: cell-based, human; conditions: IC50-48 for 3 h, EGF 100 ng/ml 10 min, densitometry
Method: as §1

[6] = system: AKT and ERK phosphorylation in MDA-MB-231RR cells; experiment: Western blotting of pAKT and pERK; format: cell-based, human; conditions: IC50-48 for 3 h, EGF 100 ng/ml 10 min, densitometry
Method: as §1

[7] = system: AKT and ERK phosphorylation in MDA-MB-231 cells; experiment: Western blotting of pAKT and pERK; format: cell-based, human; conditions: MDA-MB-231, IC50-48 for 3 h, EGF 100 ng/ml 10 min, densitometry
Method: as §1

[8] = system: MDA-MB-231RR xenograft tumors; experiment: Orthotopic breast carcinoma xenograft, tumor growth; format: in vivo, Nu/Nu nude mice; conditions: female Nu/Nu mice, i.p. daily for 15 days, 30 mg/kg (methods: P8 10 mg/kg)
Method: Female immune-deficient Nu/Nu nude mice at 6–8 weeks of age ([…], Mexico City, Mexico) were maintained in pathogen-free conditions with irradiated chow. The animals were subcutaneously injected in the left 4th mammary gland with 2 × 10^6 MDA-MB-231RR cells per tumor in 0.1 ml of sterile phosphate-buffered saline. When MDA-MB-231RR cells reached palpable tumors (≥100 mm^3), mice were divided randomly into four groups receiving vehicle (10% DMSO, 0.05% carboxy methyl cellulose, and 0.02% in PBS) (n = 5), C14 at 30 mg/kg (n = 5), P8 at 10 mg/kg (n = 5), or cisplatin at 6 mg/kg (n = 5) intraperitoneally injected daily for 15 days. Body weight and tumor volume were measured every third day. Tumor sizes were calculated using the formula [(length × width2)/2] in mm.

[9] = MCF-10A, 24 h, read-out: IC50-24
[10] = MCF-10A, 48 h, read-out: IC50-48

Row | SMILES | reduction in cyclin D1 expression [1] [%] | reduction in cyclin D1 [2] [%] | IC50 (MCF-7 cells; MCF-7, 24 h, read-out: IC50-24) [µM] | IC50 (MCF-7 cells; MCF-7, 48 h, read-out: IC50-48) [µM] | IC50 (MDA-MB-231RR cells [3]; 24 h, read-out: IC50-24) [µM] | IC50 (MDA-MB-231RR cells [3]; 48 h, read-out: IC50-48) [µM] | IC50 (MCF-10A cells; [9]) [µM] | IC50 (MCF-10A cells; [10]) [µM] | percentage of cells in S phase (MDA-MB-231RR cells [4]) [%] | percentage of cells in G2/M (MDA-MB-231 cells) [%] | reduction in pAKT [5] [%] | reduction in pERK [5] [%] | reduction in pAKT [6] [%] | reduction in pERK [6] | reduction in pAKT [7] | reduction in pERK [7] | reduction in GSK3β expression [1] | reduction in GSK3β expression [2] [%] | concentration from which a significant inhibitory effect on viability is seen (MDA-MB-231RR cells [3]; 48 h) [µM] | concentration required to observe any effect on cell viability (MCF-10A cells) | also measured
1 | N.N.[Cl][Pt][Cl] [Cisplatin, cisplatin, reference compound] | 10 | 20 | 150 ± 32.1 | 67.3 ± 20.6 | 200 | 104 ± 8.7 | 12 | 5.9 ± 1.6 | – | – | – | – | – | – | – | – | – | – | – | – | reduction of cellular viability (MCF-10A cells; MCF-10A, at low concentrations): more than 90%
2 | O=C(CN1CCN(c2cccc(Cl)c2)CC1)N[C@@H]1CCOc2ccccc21 [P8, 2-[4-(3-chlorophenyl)piperazin-1-yl]-N-[(4R)-chroman-4-yl]acetamide] | 20 | 18 | – | – | – | – | – | – | 26.4 | 8.2 | 25 | 40 | > 70 | 35% | up to 70% | up to 70% | 40% | 25 | ≥ 10 | > 150 µM | IC50 (MCF-7 cells; Homo sapiens, MCF7, MCF-7, 24 h, read-out: IC50-24): 185 ± 15.3 µM; IC50 (MCF-7 cells; Homo sapiens, MCF7, MCF-7, 48 h, read-out: IC50-48): 104 ± 49.8 µM; IC50 (MDA-MB-231RR cells [3]; Homo sapiens, 24 h, read-out: IC50-24): 163 ± 16.8 µM; IC50 (MDA-MB-231RR cells [3]; Homo sapiens, 48 h, read-out: IC50-48): 156 ± 28.4 µM; IC50 (MCF-10A cells; Homo sapiens, MCF-10A, 24 h, read-out: IC50-24): > 200 µM; IC50 (MCF-10A cells; Homo sapiens, MCF-10A, 48 h, read-out: IC50-48): > 200 µM; reduction in tumor size [8]: 41.6%
3 | CN(CC(=O)NC1CCOc2ccccc21)Cc1cccc(Cl)c1 (stereo not drawn) [C14, 2-[(3-chlorophenyl)-methyl-methyl-amino]-N-croman-4-yl-acetamide] | 20 | 40 | 174 ± 19 | 134 ± 10.5 | 128 ± 2.6 | 70.6 ± 3.5 | > 200 | > 200 | 20.7 | 6.4 | 25 | 40 | > 70 | approximately 30% | up to 60% | up to 70% | did not show an effect | 50 | ≥ 30 | higher than 100 µM | reduction in tumor size [8]: 40.0%
